Where “and” joins values, the source holds several entries; their conditions need not be identical. Identical values can stand only once.
Conditions: Crystal

O.O.[Ba+2].[Cl-].[Cl-] [barium chloride dihydrate]
Conditions	vapor or sublimation pressure
295.45 K	0.5 kPa
295.55 K	0.39 kPa and 0.53 kPa
295.65 K	0.56 kPa
297.35 K	0.31 kPa
304.25 K	1.22 kPa
304.55 K	0.9 kPa
306.35 K	1.01 kPa
306.95 K	1.31 kPa
307.25 K	1.39 kPa
307.35 K	1.04 kPa
308.25 K	1.19 kPa
309.45 K	1.3 kPa
319.05 K	2.5 kPa
321.15 K	2.66 kPa
323.15 K	3.88 kPa
323.45 K	3.85 kPa
323.75 K	3.97 kPa
324.15 K	4.05 kPa
324.85 K	5.15 kPa
325.55 K	5.1 kPa
336.95 K	9.4 kPa
343.65 K	13.59 kPa

O.[Ba+2].[Cl-].[Cl-] [barium chloride monohydrate]
Conditions	vapor or sublimation pressure
290.45 K	0.086 kPa
304.15 K	0.173 kPa
304.45 K	0.146 kPa
305.25 K	0.138 kPa
307.25 K	0.133 kPa
307.45 K	0.231 kPa
307.95 K	0.17 kPa
308.05 K	0.142 kPa
308.45 K	0.248 kPa and 0.272 kPa
308.65 K	0.241 kPa
308.95 K	0.105 kPa
309.05 K	0.195 kPa
309.25 K	0.344 kPa
310.15 K	0.199 kPa
311.45 K	0.16 kPa
312.95 K	0.24 kPa
313.45 K	0.274 kPa
315.35 K	0.35 kPa
315.95 K	0.4 kPa
316.15 K	0.76 kPa
318.45 K	0.312 kPa
322.85 K	0.6 kPa
323.55 K	0.6 kPa
334.45 K	1.04 kPa and 1.1 kPa
334.85 K	1.01 kPa
334.95 K	0.96 kPa
335.45 K	1.26 kPa
337.45 K	1.51 kPa
337.65 K	1.47 kPa
344.95 K	2.06 kPa
345.25 K	2.05 kPa
